The text below walks through data of patent US8642656B2, “Calixarene-based peptide conformation mimetics, methods of use, and methods of making” (priority 2004, dated 2014).

Series [1] concerns endothelial cell (EC). The series can be described thus: EC Proliferation Assay, [3H]thymidine incorporation (Example 36, Table 1). Type of series: cell-based. To be noted: read-out: EC proliferation IC50 (conc). As for the experimental part:
Human umbilical vein derived EC(HUVEC) were harvested from normal human umbilical cords by perfusion with 0.125% trypsin/EDTA as described in Groenewegen et al., J. Exp. Med. 164, 131-143 (1986). For determination of quiescent EC phenotype isolated ECs were immediately fixed in 1% paraformaldehyde. Human microvascular ECs (MVECs) were isolated. ECs were cultured in fibronectin coated tissue culture flasks in culture medium (RPMJ-1640 with 20% human serum (HS), supplemented with 2 mM glutamine and 100 U/ml penicillin and 0.1 mg/ml streptomycin).
EC proliferation was measured using a [^3H]thymidine incorporation assay. ECs were seeded at 5000 cells/well in flatbottomed tissue culture plates and grown for 3 days, in the absence or presence of regulators, in culture medium. During the last 6 hours of the assay, the culture was pulsed with 0.5μ Ci [methyl-^3H]thymidine/well.
For orientation: Dividing cells build labelled thymidine or BrdU into new DNA.

Series [2] deals with E. coli J96. Nature of the series: Bactericidal assay on J96. Type of series: cell-based. The conditions noted are these: for IC50: read-out: Bacterial activity on J96 IC50 (conc). An excerpt:
Pseudomonas aeruginosa type 1 is a clinical, smooth strain isolate stereotyped by using the scheme of Homma et al., Japan. J. Exp. Med. 46, 329-336 (1976) and maintained in the lab by monthly transfer on blood agar plates. E. coli J96, IA2, and H5 are smooth strain, uropathogenic clinical isolates kindly maintained and provided by J. R. Johnson and described in Johnson et al., J. Infect. Disease 173, 920-926 (1996) for J96 and IA2 and in Johnson et al., J. Infect. Disease 173, 746-749 (1996) for H5. J5 is an E. coli rough strain initially referenced by G. R. Siber and discussed in Warren et al., Infect. Immunity 55, 1668-1673 (1987) and is analogous to the smooth strain E. coli 0111:B4 used in the BioWhittaker LAL endotoxin detection and quantitation kit described below. Gram-positive MN8 and MNHO are two patient isolates of Staphylococcus aureus, which were kindly provided by P. M. Schlievert and described in Bohach et al., Rev. Infect. Diseases 11, 75-82 (1989) for MNHO and in Schlievert et al., J. Infect. Diseases 147, 236-242 (1983) for MN8. All cultures are maintained on nutrient agar plates.
Pyrogen-free solutions were used throughout the assay. Log phase bacteria were obtained by transferring an overnight culture or scraping crystals off-85° C glycerol stocks of overnight cultures. Bacteria were washed and resuspended in 0.9% sodium chloride with adjustment to an optical density at 650 nm which yields 3×10^8 CFU/ml. Bacteria were then diluted 1:10 in 0.08 M citrate phosphate buffer, pH 7.0 (prepared by mixing 0.08 M citric acid with 0.08 M dibasic sodium phosphate). Bacteria (0.15 ml) were incubated with the test compound in a final volume of 1.0 ml of buffer. The assay was done in 17×100 polypropylene tubes in a reciprocal water bath shaker at 37° C for 30 minutes. Following this 30 minute (min) incubation. 10-fold dilutions were made in 0.9% sodium chloride. Dilutions were done to 10^−4 and 20 μl of each dilution was streaked across an agar plate. Gram-positive organisms were plated on nutrient agar plates containing 2% agar and Gram-negative organisms were plated on MacConkey agar (2%). Plates were incubated overnight at 37° C and counted the next morning. The dilution containing 10-100 bacteria was counted and the number multiplied by 50 to adjust all counts to the number bacteria killed per milliliter. Compound concentrations were converted to logarithm base ten and graphed. Bactericidal activity was determined by dose response where LD50 values were determined by best fits of a sigmoidal curve to the dose response data.

The nature of series [3]: Solubility (Table 1). The conditions noted are these: footnotes: 3 mM in 100% DMSO or ethanol → 0.03 mM in H2O. In kind it is physicochemical.
Series [4] is described as follows: Hemolysis (Table 1). In kind it is cell-based. To be noted: at 10^−6 M.
The test system of series [5] is EC. The series can be described thus: EC % total cell death (Table 1). In kind it is cell-based, human.
The test system of series [6] is EC. Nature of the series: EC % apoptosis (Table 1). In kind it is cell-based, human.
For series [7], the system named is Fibro. The series can be described thus: Other cells, Fibro (Table 1). Type of series: cell-based.
The subject of series [8] is LPS from P. aeruginosa. Nature of the series: LPS neutralization assay (Limulus amoebocyte lysate, QCL-1000). In kind it is biochemical, Pseudomonas aeruginosa. To be noted: read-out: IC50 values (μM) for LPS binding, P.a. The source says: (§1) The ability of compounds to neutralize endotoxin was detected in vitro by using the chromogenic QCL-1000 kit from BioWhittaker, Inc. (Walkersville, Md.), and as described in their protocol. This Limulus amoebocyte lysate (LAL) assay is quantitative for Gram negative bacterial endotoxin (lipopolysaccharide, LPS). In this assay compounds that are active inhibit the LPS-mediated activation of a proenzyme whose active form would release p-nitroaniline (pNA) from a colorless synthetic substrate producing a yellow color (pNA) whose absorption is monitored spectrophotometrically at 405-410 nm. The initial rate of enzyme activation is proportional to the concentration of endotoxin present.
(§2) Variants of LPS from six Gram negative bacteria were used: E. coli serotypes 0111:B4 (Combrex, Walkersville, Md.) and 055:B5 (Sigma, St. Louis, Mo.); Klebsiella pneumoniae (List Biologies, San Jose, Calif.); Pseudomonas aeruginosa (List Biologies, San Jose, Calif.); Salmonella typhimurium (List Biologies, San Jose, Calif.), and Serratia marcascens (List Biologies, San Jose, Calif.). The concentration of compound required to neutralize a given LPS and therefore to inhibit the Limulus amoebocyte lysate driven by 0.04 units of any given LPS was determined by dose response curves fit by using a standard sigmoidal function to determined the JC50 value for each lopomimetic compound. The 0.04 units corresponds to 0.01 ng LPS from E. coli serotype 055:B5, 0.01 ng LPS from E. coli serotype 0111:B4, 0.003 ng LPS from K. pneumoniae, 0.01 ng LPS from P. aeruginosa, 0.03 ng LPS from S. typhimurium, and 0.03 ng LPS from S. marcascens.

For series [9], the system named is LPS from K. pneumoniae. Described as above. To be noted: read-out: IC50 values (μM) for LPS binding, Klebsiella. Type of series: biochemical, Klebsiella pneumoniae.
Excerpt: as §1, §2

The subject of series [10] is LPS from E. coli serotype 055:B5. The series is described as above. Type of series: biochemical.
Excerpt: as §1, §2

For series [11], the system named is LPS from E. coli serotype 0111:B4. The series is described as above. Type of series: biochemical. To be noted: read-out: IC50 values (μM) for LPS binding, E. coli 0111:B4.
Excerpt: as §1, §2

Series [12] deals with LPS from S. marcascens. The description is as above. The conditions noted are these: read-out: IC50 values (μM) for LPS binding, Serratia. Type of series: biochemical, Serratia marcascens.
Excerpt: as §1, §2

Series [13] has as its system LPS from S. typhimurium. The series is described as above. In kind it is biochemical, Salmonella typhimurium. To be noted: read-out: IC50 values (μM) for LPS binding, Salmonella.
Excerpt: as §1, §2

Series [14] concerns LPS from six species of bacteria. Nature of the series: LPS neutralization assay, overall statements. Type of series: biochemical. The conditions noted are these: library of 23 compounds.
Excerpt: as §1
as §2, with “The 0.04 units corresponds to 0.01 ng LPS from E. coli serotype 055:B5, 0.01 ng LPS from E. coli serotype 0111:B4, 0.003 ng LPS from K. pneumoniae, 0.01 ng LPS from P. aeruginosa, 0.03 ng LPS from S. typhimurium, and 0.03 ng LPS from S. marcascens.” left out

The mark [15] stands for this setting: Table 2, read-out: IC50 values (μM) for LPS binding, E. coli 055:B4.
Setting [16] is: Table 3, errors estimated ±30%, read-out: IC50 values (μM) for LPS binding, E. coli 055:B5.

“Also recorded” adds a separate entry of the source. Where two headings read alike, the source gives them in different places.

Consider `CC(C)CCOc1c2cc(CCC(=O)NCCN(C)C)cc1Cc1cc(CCC(=O)NCCN(C)C)cc(c1OCCC(C)C)Cc1cc(CCC(=O)NCCN(C)C)cc(c1OCCC(C)C)Cc1cc(CCC(=O)NCCN(C)C)cc(c1OCCC(C)C)C2`, for which the results for the IC50 in series [1] and in series [2] were above 25 µM and 1200 nM, respectively. In addition, the “Solubility (solvent, in words)” value in series [3] is given as “DMSO/H2O”.

With `CC(C)(C)c1cc2c(O)c(c1)Cc1cc(C(C)(C)C)cc(c1OCCCCNC(=N)N)Cc1cc(C(C)(C)C)cc(c1OCCCCNC(=N)N)Cc1cc(C(C)(C)C)cc(c1OCCCCNC(=N)N)C2`, the IC50 is above 25 µM in series [1] and 1300 nM in series [2]. The “Solubility (solvent, in words)” value in series [3] is recorded as “DMSO/H2O”.

On to `CC(C)(C)c1cc2c(OCC(=O)NCCN)c(c1)Cc1cc(C(C)(C)C)cc(c1OCC(=O)NCCN)Cc1cc(C(C)(C)C)cc(c1OCC(=O)NCCN)Cc1cc(C(C)(C)C)cc(c1OCC(=O)NCCN)C2` [drawing 14], for which the IC50 in series [1] is above 25 µM; in series [2], above 3800 nM. Further, the “Solubility (solvent, in words)” value in series [3] was “DMSO/H2O”.

As to `CN(C)CCNC(=O)COc1c2cc(C(C)(C)C)cc1Cc1cc(C(C)(C)C)cc(c1OCC(=O)NCCN(C)C)Cc1cc(C(C)(C)C)cc(c1OCC(=O)NCCN(C)C)Cc1cc(C(C)(C)C)cc(c1OCC(=O)NCCN(C)C)C2` [drawing 10], the results for the IC50 in [1] and in series [2] were above 25 µM and 1300 nM, respectively. Moreover, the Hemolysis in [4] came to 100% at 10^−6 M. Further, the “EC % total cell death” value in series [5] is reported as “No effect”. Besides, in [6], the “EC % Apoptosis 25 μM” value is given as “No effect”. Moreover, the “Other cells 25 μM, Fibro” value in series [7] turned out to be 100%. Moreover, in series [3], the “Solubility (solvent, in words)” value was “DMSO/H2O”.

With `CN(C)CCNC(=O)COc1c2cc(C(C)(C)C)cc1Cc1cc(C(C)(C)C)cc(c1OCC(=O)NCCN(C)C)Cc1cc(C(C)(C)C)cc(c1OCC(=O)NCCN(C)C)Cc1cc(C(C)(C)C)cc(c1OCC(=O)NCCN(C)C)C2` [Compound 3], the IC50 in series [8] (Table 2) was above 5 µM; in [8] (Table 3, errors estimated ±30%), above 5 µM; in [9] (Table 2), 0.08 µM; in series [9] (Table 3, errors estimated ±30%), above 5 µM; in series [10] (setting [15]) it was 4.4 µM; in series [10] (setting [16]), above 5 µM. Moreover, the IC50 in [11] (Table 2) is above 5 µM; in series [11] (Table 3, errors estimated ±30%), above 5 µM; in series [12] (Table 2), above 5 µM; in series [12] (Table 3, errors estimated ±30%), above 5 µM; in series [13] (Table 2), 4.1 µM; in [13] (Table 3, errors estimated ±30%), above 5 µM. In [2] (in the micromolar range (Table 1)), the “bactericidal activity (in words)” value was “reasonably good bactericidal activity”.

Regarding `CC(C)(C)c1cc2c(OCCCCN)c(c1)Cc1cc(C(C)(C)C)cc(c1OCCCCNC(=N)N)Cc1cc(C(C)(C)C)cc(c1OCCCCNC(=N)N)Cc1cc(C(C)(C)C)cc(c1OCCCCNC(=N)N)C2.O=C(O)C(F)(F)F` [Compound 43, 5,11,17,23-Tetra-tert-butyl-25,26,27-tris(4-guanidinobutyroxy)-28-(4-aminobutyroxy) calix[4]arene trifloroacetic acid salt], the IC50 in series [8] (Table 2) was 0.8 µM; in series [8] (Table 3, errors estimated ±30%), 0.8 µM; in series [9] (Table 2) it was 0.5 µM; in series [9] (Table 3, errors estimated ±30%), 0.5 µM; in series [10] (setting [15]) it was 0.1 µM; in series [10] (setting [16]), 0.1 µM. Further, the IC50 was 0.4 µM in series [11] (Table 2); 0.4 µM in series [11] (Table 3, errors estimated ±30%); 3.2 µM in series [12] (Table 2); 3.2 µM in series [12] (Table 3, errors estimated ±30%); 0.6 µM in series [13] (Table 2); 0.6 µM in series [13] (Table 3, errors estimated ±30%). For the same molecule, in [14], the “neutralizing LPS, ranking in words” value is recorded as “best LPS neutralizing compounds; also recorded: most effective for neutralizing LPS”.

`CC(C)(C)c1cc2c(O)c(c1)Cc1cc(C(C)(C)C)cc(c1OCCNC(=N)N)Cc1cc(C(C)(C)C)cc(c1O)Cc1cc(C(C)(C)C)cc(c1OCCN)C2.O=C(O)C(F)(F)F`: the IC50 in series [1] was above 25 µM; in [2], 2500 nM. In addition, the “Solubility (solvent, in words)” value in [3] was “DMSO/H2O”.
